Data reported in patent US9932300B2, “N,N′-diarylurea compounds and N,N′-diarylthiourea compounds as inhibitors of translation initiation” (President and Fellows of Harvard College, priority 2009, dated 2018).

System: eIF2-GTP-Met-tRNAi ternary complex
Experiment: Ternary complex assay (dual luciferase, firefly/renilla ratio) in stable KLN-tTA/pBISA-DL(ATF-4) cells; HTS and hit confirmation
Assay type: cell-based, mouse
Parameters: Activity 10 uM / Activity 2.5 uM / Activity 5 uM: unit not given here
Conditions: confirmed hits of the screen (Table 5); for Activity 2.5 uM: compound at 2.5 uM; for Activity 10 uM: compound at 10 uM; for Activity 5 uM: compound at 5 uM

| Compound | Activity 2.5 uM | Activity 10 uM | Activity 5 uM |
| --- | --- | --- | --- |
| Cl.c1ccc2c(c1)Cn1c-2nc2ccccc21 [Compound 163482] | 1.588 | 3.207 | – |
| O=C1c2ccccc2-c2nc3cc4ccccc4cc3nc21 [Compound 163547] | 3.27 | 4.38 | – |
| [Hg+][c]1ccccc1.[O-]B(O)O [Compound 163948] | 5.67 | – | – |
| CCc1ccc(NC(=O)Nc2cccc(Cl)c2)cc1 [Compound 164212] | 2.04 | 4.07 | – |
| Cc1cccnc1.Cc1cccnc1.Cc1cccnc1.Cc1cccnc1.[Cl-].[Cl][Rh-][Cl] [Compound 165688] | – | 14.6965 | 17.91 |
| Clc1ccc(Cl)c(NNc2cc(Cl)ccc2Cl)c1 [Compound 165765] | 1.34 | 4.44 | – |
| C(=C(\C[P+](c1ccccc1)(c1ccccc1)c1ccccc1)c1ccccc1)/c1ccccc1 [Compound 167334] | – | 12.373 | 11.387 |
| Oc1ccc2ccccc2c1/C=N/Nc1ccc2ccccc2n1 [Compound 168465] | – | 6 | 2.2 |
| N#Cc1c(F)c(F)c(Oc2c(F)c(F)c(F)c(F)c2F)c(F)c1Oc1c(F)c(F)c(F)c(F)c1F [Compound 168745] | 0.39 | 36.37 | – |
| NNC(=S)N/N=C/c1ccc([N+](=O)[O-])s1 [Compound 170334] | 0.98 | 4.45 | – |
| N#CC(C#N)=C/C=C/C=C/c1c(Cl)cccc1Cl [Compound 170444] | 0.66 | 12.56 | – |
| CC(C)c1ccc(N=Nc2ccc(N(C)C)cc2)cc1 [Compound 170582] | 3.72 | 4.44 | – |
| CN(C)c1ccc(N=Nc2ccc(Cl)c(Cl)c2)cc1 [Compound 170589] | 3.81 | 6.57 | – |
| CN(C)c1ccc(N=Nc2ccncc2)cc1 [Compound 170600] | 2.21 | 3.46 | – |
| c1ccc(N=Nc2n[nH]c3ccccc23)cc1 [Compound 170633] | 5.12 | 8.99 | – |
| Cc1cnccc1N=Nc1ccc(N(C)C)cc1 [Compound 170639] | 3.93 | 5.38 | – |
| Nc1cccc2scnc12 [Compound 170680] | – | 6.8 | 2.7 |
| Oc1cccc(C2=NNC(c3cccc(O)c3)=NN2)c1 [Compound 171129] | 5.1 | 7.98 | – |
| Oc1ccc(-c2nnc(-c3ccccc3)nn2)cc1 [Compound 171134] | 2.89 | 3.68 | – |
| COC1/C=C/OC2(C)Oc3c(C)c(O)c4c(O)c(c(C=NN5CCCCCCCC5)c(O)c4c3C2=O)NC(=O)/C(C)=C/C=C/C(C)C(O)C(C)C(O)C(C)C(OC(C)=O)C1C (stereo not drawn) [Compound 172656] | – | 3.9 | 1.6 |
| O=C(Nc1cccc(Cl)c1)NC1CCC(CC2CCCCC2)CC1.O=C(Nc1cccc(Cl)c1)NC1CCC(CC2CCCCC2)CC1 (stereo not drawn) [Compound 172879] | 1.11 | 3.6 | – |
| CC(C)(C)C1CCC(NC(=O)C(Cl)Cl)CC1.CC(C)(C)C1CCC(NC(=O)C(Cl)Cl)CC1 (stereo not drawn) [Compound 173000] | 0.61 | 3.68 | – |

| Compound | Activity 2.5 uM | Activity 10 uM | Activity 5 uM |
| --- | --- | --- | --- |
| CO[C@H]1/C=C/O[C@@]2(C)Oc3c(C)c(O)c4c(O)c(c(/C=N/N5CCN(Cc6cccc(C(F)(F)F)c6)CC5)c(O)c4c3C2=O)NC(=O)/C(C)=C\C=C\[C@H](C)[C@H](O)[C@@H](C)[C@@H](O)[C@@H](C)[C@H](OC(C)=O)[C@@H]1C [Compound 173710] | 0.83 | 16.35 | – |
| Cc1ccc(-c2nc(C#N)c(C#N)nc2-c2ccc(C)cc2)cc1 [Compound 174794] | – | 33.869 | 24.857 |
| Oc1ccc(-c2nnc(-c3ccc(O)cc3)nn2)cc1 [Compound 174877] | 3.04 | 3.29 | – |
| [CH3][Hg][O]C(C)=O [Compound 176145] | 3.81 | – | – |
| CS(=O)(=O)c1ccc(/C=C2\C=Cc3ccccc32)cc1 [Compound 176657] | 1.67 | 4.64 | – |
| FC(F)(F)c1cccc(-c2nc3nc(Cl)c(Cl)nc3[nH]2)c1 [Compound 177407] | – | 21.876 | 16.53 |
| CCC[CH2][Sn]([CH2]CCC)([CH2]CCC)[n]1ccnc1 [Compound 179739] | 0.98 | 3.62 | – |
| CCCCC[CH2][Sn]([CH2]CCCCC)([CH2]CCCCC)[NH]S(=O)(=O)c1ccc(C)cc1 [Compound 179762] | 0.72 | 18.35 | – |
| Clc1nn2nnnc2c2ccccc12 [Compound 179944] | 0.54 | 6.1 | – |
| Cc1cc(C)nc(NC(=S)N/N=C/c2ccccn2)n1 [Compound 185066] | – | 20.339 | 44.91 |
| N#Cc1nc2c3ccccc3c(N=NC(=N)N[N+](=O)[O-])c-2[nH]c1C#N [Compound 186256] | – | 3.71 | 3.212 |
| N#Cc1nc2c3ccccc3c(N=NC(N)=S)c-2[nH]c1C#N [Compound 186257] | – | 59.966 | 49.982 |
| CC(/C=N/O)=N\O.CC(/C=N/O)=N\O.[Pd] [Compound 186948] | – | 4.4425 | 4.507 |
| COc1ccc(NC(=O)Nc2ccccc2Cl)c(Cl)c1 [Compound 191346] | – | 4.4055 | 3.018 |
| O=C(/C=C/c1ccccc1)Nc1ccc(Cl)c(Cl)c1 [Compound 191395] | – | 7.0185 | 3.609 |
| CC12CC3CC(C)(C1)CC(SCCN=C(N)CCl)(C3)C2.Cl [Compound 193484] | 1.24 | 22.72 | – |
| N#Cc1nc2c(nc1C#N)-c1ccccc1/C2=C1/C(=O)Cc2ccccc21 [Compound 193713] | 0.55 | 24.26 | – |
| CCC[CH2][Sn]1([CH2]CCC)[O]CC2(CCCCC2)C[O]1 [Compound 194646] | 8.08 | 6.24 | – |
| C=C1CC2(OC1=O)C(=O)N(C)c1ccccc12 (stereo not drawn) [Compound 194807] | 1.72 | 3.45 | – |
| COc1ccc(NC(=S)Nc2ccccc2S)cc1 [Compound 201570] | 2.16 | 3.02 | – |
| C/C(=N\N=C(/C)c1ccc(F)cc1)c1ccc(F)cc1 [Compound 202060] | – | 5.049 | 3.63 |
| CCS(=O)(=O)/C=C/c1ccc2ccccc2n1 [Compound 202491] | 0.5 | 3.05 | – |

| Compound | Activity 2.5 uM | Activity 10 uM | Activity 5 uM |
| --- | --- | --- | --- |
| CCCC[CH2][Sn]([CH2]CCCC)[CH2]CCCC.CCCC[CH2][Sn]([CH2]CCCC)[CH2]CCCC [Compound 202674] | 4.67 | – | – |
| CCC[CH2][Sn]([C]#[C][Sn]([CH2]CCC)([CH2]CCC)[CH2]CCC)([CH2]CCC)[CH2]CCC [Compound 203205] | 3.12 | – | – |
| C(=P(c1ccccc1)(c1ccccc1)c1ccccc1)[P+](c1ccccc1)(c1ccccc1)c1ccccc1.[Br-].[Br-].[Cu+] [Compound 203423] | 7.7 | 3.09 | – |
| O=C(Nc1ccc(Cl)c(Cl)c1)c1ccc(Cl)cc1 [Compound 204163] | 2.44 | 4.83 | – |
| Cc1cc(Cl)c(Cl)cc1NC(=O)c1ccc(Cl)cc1Cl [Compound 204246] | 1.92 | 3.49 | – |
| COc1ccccc1C(=O)N/N=C\c1ccc(Cl)cc1Cl [Compound 204386] | – | 6.0225 | 5.252 |
| CN(C)c1ccc(N=Nc2cccc([N+](=O)[O-])c2)cc1 [Compound 204512] | 2.67 | 4.16 | – |
| Cc1ccc(N=Nc2ccc(N(C)C)cc2)cc1 [Compound 204514] | 3.6 | 4.66 | – |
| CN(C)c1ccc(N=Nc2cccc(Cl)c2)cc1 [Compound 204515] | 2.84 | 5.31 | – |
| O=C(Nc1ccc2ccccc2c1)c1ccccc1Cl [Compound 204548] | 2.82 | 3.99 | – |
| CSc1ccc(NC(=O)c2ccc(Cl)cc2Cl)cc1 [Compound 204668] | – | 4.923 | 5.386 |
| O=C(COc1ccc(Cl)cc1)Nc1nccs1 [Compound 204716] | 2.2 | 3.01 | – |
| CCc1ccc(NC(=O)Nc2ccc(Cl)c(Cl)c2)cc1 [Compound 204750] | 3.53 | 24.26 | – |
| O=C(Nc1ccc(Cl)c(Cl)c1)OCC1CC2C=CC1C2 (stereo not drawn) [Compound 204751] | 2.91 | 4.76 | – |
| CCOC(=O)C1CCc2c(ccc3ccccc23)N1 (stereo not drawn) [Compound 204931] | – | 3.539 | 3.1 |
| O=C(Nc1ccc2ccccc2c1)c1ccc(Cl)cc1 [Compound 205530] | 3.08 | 3.34 | – |
| O=C(Nc1ccc(Br)cc1)OCC1CC2C=CC1C2 (stereo not drawn) [Compound 205545] | 2.41 | 4.54 | – |
| O=C(Nc1ccccc1F)C(Br)C(Br)c1ccccc1 (stereo not drawn) [Compound 205548] | 2.94 | 4.01 | – |
| CSc1ccc(NC(=O)Nc2cccc(F)c2)cc1 [Compound 205787] | 1.79 | 4.39 | – |
| CSc1ccc(NC(=O)Nc2ccccc2F)cc1 [Compound 205789] | 3.99 | 7.26 | – |
| CO[C@H]1/C=C/O[C@@]2(C)Oc3c(C)c(O)c4c(O)c(c(/C=N/N5CC(C)(C)N(Cc6ccccc6)CC5(C)C)c(O)c4c3C2=O)NC(=O)/C(C)=C\C=C\[C@H](C)[C@H](O)[C@@H](C)[C@@H](O)[C@@H](C)[C@H](OC(C)=O)[C@@H]1C [Compound 208394] | – | 13.4 | 1.5 |
